Assay results as given in ChEMBL document CHEMBL5058564, “EUbOPEN Chemogenomics Library 2 (Incucyte)” (2022).

Legend:
Format in all cases: toxicity, cell-based
U2OS = assay: Incucyte cell viability with U2OS; conditions: human, 10 µM, compound concentration 10 uM
Fibroblast = assay: Incucyte cell viability with human fibroblast; conditions: 10 µM, compound concentration 10 uM
HEK-293T = assay: Incucyte cell viability with HEK293T; conditions: human, 10 µM, compound concentration 10 uM
[1] = 0 h, replicate number 2, timepoint 0 hours
[2] = 6 h, replicate number 1, timepoint 6 hours
[3] = 6 h, replicate number 2, timepoint 6 hours
[4] = 12 h, replicate number 1, timepoint 12 hours
[5] = 18 h, replicate number 1, timepoint 18 hours
[6] = 18 h, replicate number 2, timepoint 18 hours
[7] = 24 h, replicate number 1, timepoint 24 hours
[8] = 24 h, replicate number 2, timepoint 24 hours
[9] = 12 h, replicate number 2, timepoint 12 hours
[10] = 0 h, replicate number 1, timepoint 0 hours
Also: unitless GR value; below 1 slowed growth and below 0 cell loss.

| SMILES | Growth Rate (U2OS; [1]) | Growth Rate (U2OS; [2]) | Growth Rate (U2OS; [3]) | Growth Rate (U2OS; [4]) | Growth Rate (U2OS; [5]) | Growth Rate (U2OS; [6]) | Growth Rate (U2OS; [8]) | Growth Rate (Fibroblast; [2]) | Growth Rate (Fibroblast; [4]) | Growth Rate (Fibroblast; [5]) | Growth Rate (HEK-293T; [1]) | Growth Rate (HEK-293T; [2]) | Growth Rate (HEK-293T; [5]) | Growth Rate (HEK-293T; [7]) | Growth Rate (Fibroblast; [10]) | Growth Rate (Fibroblast; [1]) | Growth Rate (HEK-293T; [6]) | Growth Rate (Fibroblast; [7]) | Growth Rate (HEK-293T; [4]) | Growth Rate (U2OS; [9]) | other results |
| --- | --- | --- | --- | --- | --- | --- | --- | --- | --- | --- | --- | --- | --- | --- | --- | --- | --- | --- | --- | --- | --- |
| CC1(C)[C@H]2C[C@H](C/C=C\CCCC(=O)O)[C@@H](NC(=O)c3csc4ccc(O)cc34)[C@@H]1C2 | -0.79 | 0.23 | 0.91 | 0.14 | 0.37 | 0.81 | 0.86 | 0.09 | 0.51 | 0.69 | 0.67 | 0.73 | 0.94 | 0.85 |  |  |  |  |  |  | Growth Rate (U2OS; [7]): 0.66; Growth Rate (Fibroblast; [9]): 0.75 |
| CN1CCC(c2c[nH]c3ccc(O)cc23)CC1 | 0.6 |  |  | 0.97 |  |  |  | 0.11 |  |  | 0.25 |  | 0.98 |  | 0.18 | -0.25 | 0.89 |  |  |  | Growth Rate (U2OS; [10]): 0.81; Growth Rate (HEK-293T; [9]): 0.98; Growth Rate (HEK-293T; [8]): 0.89 |
| O=C(O)CCC/C=C\C[C@H]1C(=O)C[C@@H](O)[C@@H]1/C=C/[C@@H](O)CCc1ccccc1 |  | 0.41 |  | 0.52 | 0.77 |  |  | 0 | 0.4 | 0.74 | -0.05 | 0.8 | 1 | 0.89 | 0.15 | -0.3 |  | 0.66 | 0.68 |  | Growth Rate (U2OS; [10]): 0.49; Growth Rate (U2OS; [7]): 0.97 |
| O=C(c1cc(C2CC2)on1)N(C1CCCCC1)C1CCCCC1 |  | 0.89 | 0.71 | 0.7 |  |  | 1 | -0.36 | 0.15 | 0.82 | 0.08 | 0.27 | 0.64 | 0.74 | 0.81 |  | 0.68 | 0.78 | 0.55 |  | Growth Rate (U2OS; [10]): 0.64; Growth Rate (Fibroblast; [9]): 0.97; Growth Rate (Fibroblast; [6]): 0.86; Growth Rate (Fibroblast; [8]): 0.8; Growth Rate (HEK-293T; [9]): 0.56; Growth Rate (HEK-293T; [8]): 0.67 |
| Cl.FC(F)(F)c1ccc(N2CCNCC2)nc1Cl | 0.39 | 0.77 | 0.86 | 0.84 | 0.93 | 0.87 | 0.96 | 0.27 | 0.59 | 0.46 | 0.55 | 0.75 | 0.79 | 0.75 | 0.87 | 0.43 | 0.89 | 0.59 | 0.89 | 0.78 | Growth Rate (HEK-293T; [3]): 0.92; Growth Rate (HEK-293T; [9]): 0.95; Growth Rate (HEK-293T; [8]): 0.82 |
| Cc1nn(C)c(C)c1-c1cccc2c1CC[C@H](N(C)C)C2 | 0.01 | 0.52 | 0.91 | 0.78 | 0.69 | 0.97 | 0.99 |  | 0.75 | 0.49 | 0.25 | 0.95 | 0.97 | 0.9 | 0.48 | -0.09 |  | 0.61 | 0.97 | 0.8 | Growth Rate (U2OS; [10]): -0.3; Growth Rate (U2OS; [7]): 0.86 |
| CSc1cc2c(cc1C(F)(F)F)N(C(=O)Nc1cccnc1)CC2 |  |  |  |  | 0.84 |  | 0.93 |  |  |  | -0.27 | 0.82 | 0.75 | 0.64 | -0.3 | 0.46 |  |  | 0.63 | 0.94 | Growth Rate (U2OS; [7]): 0.99 |
| CN1CCC(C(=O)c2cccc(NC(=O)c3c(F)cc(F)cc3F)n2)CC1 | 0.68 | 0.94 |  |  |  |  |  |  | 0.6 | 0.86 | -1 | 0.24 | 0.81 | 0.93 |  | 0.32 |  | 0.59 | 0.74 |  | Growth Rate (Fibroblast; [3]): 0.9; Growth Rate (Fibroblast; [6]): 0.96; Growth Rate (Fibroblast; [8]): 0.78 |
| CCc1nn2c(C)cc(C)nc2c1Cc1ccc(-c2nnc(C3CCNCC3)o2)cc1 | 0.09 |  |  |  |  |  |  | -0.59 | -0.55 | -0.43 | 0.38 | 0.9 | 0.88 |  |  |  |  | -0.25 |  |  | Growth Rate (Fibroblast; [3]): 0.22; Growth Rate (Fibroblast; [9]): 0.37; Growth Rate (Fibroblast; [6]): 0.56; Growth Rate (Fibroblast; [8]): 0.65 |
| Fc1cccc(/C=N/N=C/c2cccc(F)c2)c1 | 0.84 |  | 0.83 |  |  |  |  | -0.08 | 0.7 |  | 0.2 | 0.72 | 0.89 | 0.96 |  |  |  | 0.91 | 0.77 | 0.84 |  |
| NC[C@H](O)c1ccc(O)c(O)c1.O.O=C(O)C(O)C(O)C(=O)O | 0.46 |  | 0.72 |  |  | 0.98 |  | 0.19 | 0.79 | 0.97 | 0.69 | 0.63 | 0.76 | 0.86 | 0.92 | 0.62 | 0.8 | 0.77 | 0.75 | 0.93 |  |
| Cc1cccc(S(=O)(=O)N(C)[C@H](C)CCN2CCC(C)CC2)c1.Cl | -0.95 |  | 0.95 |  |  | 0.97 |  | 0.83 |  |  | 0.65 |  | 0.84 | 0.69 | 0.08 |  | 0.87 |  |  |  | Growth Rate (U2OS; [10]): 0.29; Growth Rate (Fibroblast; [3]): 0.52; Growth Rate (HEK-293T; [3]): 0.92; Growth Rate (HEK-293T; [8]): 0.66 |
| COc1ccc(NC(=O)c2ccc(-c3ccc(-c4noc(C)n4)cc3C)cc2)cc1OCCN(C)C.Cl | -1 | -0.71 |  | -0.36 | -0.17 | 0.28 | 0.14 | -0.36 | -0.41 | -0.47 | -0.89 | -0.88 | -0.53 | -0.45 |  |  | -0.31 | -0.57 | -0.65 | 0.51 | Growth Rate (U2OS; [10]): -0.87; Growth Rate (U2OS; [7]): -0.18; Growth Rate (Fibroblast; [3]): -0.28; Growth Rate (Fibroblast; [9]): -0.33; Growth Rate (Fibroblast; [6]): -0.48; Growth Rate (Fibroblast; [8]): -0.52; Growth Rate (HEK-293T; [3]): -0.73; Growth Rate (HEK-293T; [9]): -0.38; Growth Rate (HEK-293T; [8]): -0.35 |
| C[C@H](N)COC(=O)[C@@H](CCCCN)NC(=O)Cc1c(-c2ccc3ccccc3c2)[nH]c2c1ccc1ccccc12 |  | 0.46 |  | 0.89 | 0.73 | 0.76 |  | 0.67 |  | 0.71 | 0.88 |  |  |  | 0.29 | 0.37 |  | 0.64 | 0.97 | 0.83 |  |
| Br.Cc1cccc(C2CN(C)CCc3c2cc(O)c(O)c3Cl)c1 (stereo not drawn) |  |  | 0.97 | 0.92 | 0.87 | 0.92 | 0.97 |  |  |  | 0.8 | 0.81 | 0.95 | 0.93 | -0.09 | 0.18 | 0.81 |  | 0.71 |  | Growth Rate (U2OS; [7]): 0.84; Growth Rate (HEK-293T; [3]): 0.45; Growth Rate (HEK-293T; [9]): 0.8 |
